Assay results as given in ChEMBL document CHEMBL1138381, “Synthesis and anticonvulsant activity of sulfonamide derivatives-hydrophobic domain” (Bioorg Med Chem Lett, 2007).
Activity calls are given as the source filed them. The calls are words filed in the database; no cut-off is given here.

Tests used:
[1] = system: Mus musculus; experiment: Anticonvulsant activity against maximal electroshock-induced seizure in Albino mouse at 300 mg/kg, ip after 4 hrs; assay type: functional, organism-based; set-up: dose 300 mg/kg
[2] = system: Mus musculus; experiment: Anticonvulsant activity against maximal electroshock-induced seizure in Albino mouse at 100 mg/kg, ip after 0.5 hrs; assay type: organism-based; set-up: dose 100 mg/kg, route intraperitoneal; details: in vivo
[3] = system: Mus musculus; experiment: Anticonvulsant activity against pentylenetetrazole-induced seizures in Albino mouse at 300 mg/kg, ip after 4 hrs; assay type: functional, organism-based; set-up: dose 300 mg/kg
[4] = system: Mus musculus; experiment: Anticonvulsant activity against pentylenetetrazole-induced seizures in Albino mouse at 300 mg/kg, ip after 0.5 hrs; assay type: functional, organism-based; set-up: dose 300 mg/kg
[5] = system: Mus musculus; experiment: Neurotoxicity in Albino mouse at 300 mg/kg, ip after 0.5 hrs by rotarod test; assay type: toxicity, organism-based; set-up: dose 300 mg/kg, route intraperitoneal; details: in vivo
[6] = system: Mus musculus; experiment: Neurotoxicity in Albino mouse at 300 mg/kg, ip after 4 hrs by rotarod test; assay type: toxicity, organism-based; set-up: dose 300 mg/kg, route intraperitoneal; details: in vivo
[7] = system: Mus musculus; experiment: Anticonvulsant activity against maximal electroshock-induced seizure in Albino mouse at 300 mg/kg, ip after 0.5 hrs; assay type: functional, organism-based; set-up: dose 300 mg/kg
[8] = system: Rattus norvegicus; experiment: Anticonvulsant activity against maximal electroshock-induced seizure in rat at 30 mg/kg, po upto 4 hrs; assay type: functional, organism-based; set-up: dose 30 mg/kg
[9] = system: Rattus norvegicus; experiment: Toxicity in rat at 30 mg/kg upto 4 hrs; assay type: organism-based; set-up: dose 30 mg/kg; details: in vivo
[10] = system: Mus musculus; experiment: Anticonvulsant activity against maximal electroshock-induced seizure in Albino mouse at 100 mg/kg, ip after 4 hrs; assay type: organism-based; set-up: dose 100 mg/kg, route intraperitoneal; details: in vivo
[11] = system: Rattus norvegicus; experiment: Anticonvulsant activity against maximal electroshock-induced seizure in rat at 30 mg/kg, po after 0.5 hrs; assay type: functional, organism-based; set-up: dose 30 mg/kg
[12] = system: Mus musculus; experiment: Anticonvulsant activity against maximal electroshock-induced seizure in Albino mouse at 30 mg/kg, ip after 0.5 hrs; assay type: functional, organism-based; set-up: dose 30 mg/kg
[13] = system: Mus musculus; experiment: Anticonvulsant activity against maximal electroshock-induced seizure in Albino mouse at 30 mg/kg, ip after 4 hrs; assay type: functional, organism-based; set-up: dose 30 mg/kg
[14] = system: Mus musculus; experiment: Neurotoxicity in Albino mouse at 100 mg/kg, ip after 0.5 hrs by rotarod test; assay type: toxicity, organism-based; set-up: dose 100 mg/kg, route intraperitoneal; details: in vivo
[15] = system: Mus musculus; experiment: Neurotoxicity in Albino mouse at 100 mg/kg, ip after 4 hrs by rotarod test; assay type: toxicity, organism-based; set-up: dose 100 mg/kg, route intraperitoneal; details: in vivo
[16] = system: Mus musculus; experiment: Anticonvulsant activity against pentylenetetrazole-induced seizures in Albino mouse at 100 mg/kg, ip after 0.5 hrs; assay type: functional, organism-based; set-up: dose 100 mg/kg
[17] = system: Rattus norvegicus; experiment: Anticonvulsant activity against maximal electroshock-induced seizure in rat at 30 mg/kg, po after 0.25 hrs; assay type: functional, organism-based; set-up: dose 30 mg/kg
[18] = system: Rattus norvegicus; experiment: Anticonvulsant activity against maximal electroshock-induced seizure in rat at 30 mg/kg, po after 1 hr; assay type: functional, organism-based; set-up: dose 30 mg/kg

Row | SMILES | Activity [1] | Activity [2] | Activity [3] | Activity [4] | Activity [5] | Activity [6] | Activity [7] | Activity [8] | Activity [9] | Activity [10] | Activity [11] | Activity [12] | Activity [13] | Activity [14] | Activity [15] | Activity [16] | Activity [17] | Activity [18]
1 | Cc1ccc(NC(=S)Nc2ccc(S(=O)(=O)Nc3ccc(Br)cc3)cc2)cc1 | Active | Active | inactive | Active | Toxic | Toxic |  |  |  |  |  |  |  |  |  |  |  | 
2 | CNC(=S)Nc1ccc(S(=O)(=O)Nc2nc3ccc(OC)cc3s2)cc1 | inactive |  | inactive | inactive | Non-toxic | Non-toxic | Active |  |  |  |  |  |  |  |  |  |  | 
3 | CCNC(=S)Nc1ccc(S(=O)(=O)Nc2nc3ccc(OC)cc3s2)cc1 | inactive |  | inactive | inactive | Non-toxic | Non-toxic | inactive |  |  |  |  |  |  |  |  |  |  | 
4 | Cc1ccc(NC(=S)Nc2ccc(S(=O)(=O)Nc3ccc(Cl)cc3)cc2)cc1 | Active | Active |  | Active | Toxic | Toxic |  |  |  |  |  |  |  |  |  |  |  | 
5 | CNC(=S)Nc1ccc(S(=O)(=O)Nc2nc3ccc(Cl)cc3s2)cc1 |  |  | Active | inactive | Non-toxic | Toxic | inactive | Active | Non-toxic | Active |  |  |  |  |  |  |  | 
6 | O=C1NC(=O)C(c2ccccc2)(c2ccccc2)N1 [PHENYTOIN] |  |  | inactive | inactive |  |  |  |  |  |  | Active | Active | Active | Toxic | Toxic |  |  | 
7 | CNC(=S)Nc1ccc(S(=O)(=O)Nc2ccc(Br)cc2)cc1 |  |  | inactive | Active | Toxic | Non-toxic | Active |  |  |  |  |  |  |  |  |  |  | 
8 | Cc1ccc(NC(=S)Nc2ccc(S(=O)(=O)Nc3ccc(C)cc3)cc2)cc1 | Active |  | inactive | Active | Toxic | Non-toxic | Active |  |  |  |  |  |  |  |  |  |  | 
9 | CNC(=S)Nc1ccc(S(=O)(=O)Nc2ccc(Cl)cc2)cc1 | Active |  |  | Active | Toxic | Toxic | Active |  |  |  |  |  |  |  |  |  |  | 
10 | NC(=O)N1c2ccccc2C=Cc2ccccc21 [CARBAMAZEPINE] | inactive |  | inactive |  |  | Toxic |  |  |  |  |  | Active |  | Toxic |  | Active |  | 
11 | CCCC(CCC)C(=O)O [VALPROIC ACID] | inactive |  | inactive | Active | Non-toxic | Non-toxic | inactive |  |  |  |  |  |  |  |  |  |  | 
12 | CCC1(C)CC(=O)NC1=O (stereo not given) [ETHOSUXIMIDE] | inactive |  | inactive | Active | Non-toxic | Non-toxic | inactive |  |  |  |  |  |  |  |  |  |  | 
13 | CNC(=S)Nc1ccc(S(=O)(=O)Nc2nc3ccc(F)cc3s2)cc1 | inactive |  | inactive | inactive | Non-toxic | Non-toxic | Active |  |  |  |  |  |  |  |  |  |  | 
14 | CCNC(=S)Nc1ccc(S(=O)(=O)Nc2nc3ccc(Cl)cc3s2)cc1 |  |  | Active | inactive | Non-toxic | Toxic | inactive | Active | Non-toxic |  | inactive |  | Active |  |  |  | inactive | inactive
15 | CCNC(=S)Nc1ccc(S(=O)(=O)Nc2nc3ccc(F)cc3s2)cc1 | inactive |  | inactive | Active | Non-toxic | Non-toxic | Active |  |  |  |  |  |  |  |  |  |  | 
